The subject of one data set is restraint ulcers in rats. Nature of the data set: inhibition of restraint ulcers in rats (Bonfils method). The data set is classed as in vivo. As to conditions: po; approximate ED50; rat, per os one hour before immobilization, lesions counted 4 hours after immobilization; read-out: Antiulcerogenic activity p.o. ED50. The source says:
The compounds of the present invention are active on the gastroenteric system, in particular they are endowed with anti-ulcerogenic and gastric anti-secretory activity and are therefore useful in therapy, for example in the prevention and treatment of peptic, e.g. duodenal, gastric and esophageal, ulcers and to inhibit gastric acid secretion. The compounds of the invention are also useful for reducing the undesiderable gastrointestinal side-effects resulting from systemic administration of anti-inflammatory prostaglandin synthetase inhibitors and may be, therefore, used for this purpose in association with them. The anti-ulcerogenic activity of the compounds of the invention is shown, e.g., by the fact that they are active in the test of the inhibition of restraint ulcers in rats, according to the method of Bonfils et al., (Therapie, 1960, 5, 1096; Jap. J. Pharmac. 1945, 43, 5). Six Sprague-Dawley male rats (100-120 g) fasted 24 hours were used for the experiment: a square flexible small-mesh wire netting was used for the immobilization and 4 hours after the immobilization the rats were sacrificed, their stomachs were removed and the lesions counted under a dissecting microscope. The tested compounds were administered per os (p.o.) one hour before the immobilization.

Data set [1] has as its system carrageenin induced oedema. The experiment in a line: carrageenin induced oedema in the hind paw of rats. The data set is classed as in vivo. As to conditions: approximate ED25; rat, oral administration; read-out: Anti-inflammatory activity Carrageenin induced oedema ED25. From the text:
(§1) A. Winter et al. (J. Pharmac. Exp. Therap. 1963, 141, 369) and P. Lence (Arch. Int. Pharmacodyn., 1962, 136, 237), and (B) the Reversed Passive Arthus Reaction (RPAR) in rat paw, induced by the interaction of antigen and antibody resulting in the formation of precipitating immune complex, followed by fixation of complement and accumulation of polymorphonuclear leucocytes at a focal point (D. K. GEMMELL, J. COTTNEY and A. J. LEWIS, Agents and Actions 9/1 pag. 107, 1979). The compounds of this invention are also endowed with analgesic activity. The analgesic activity was assessed, for example, by means of phenylquinone induced writhing test in mice according to Siegmund [Siegmund et al. Proc. Soc. Exper. Biol. Med., 95, 729 (1957)].
(§2) Therefore the compounds of the invention may be used in therapy to treat pains and inflammatory processes, such as for example, rheumatoid arthritis and osteoarthrosis. The following Tables II and III show, for example, the approximate ED25 values of the anti-inflammatory activity in the above tests in the rat after oral administration for some compounds of this invention: […]
(In the carrageenan paw model, swelling and tenderness develop within hours.)

Data set [2] in a line: acute toxicity (LD50) in the mouse. The settings on record: in vivo, po, per os, single administration of increasing doses, measured on the seventh day, read-out: approximate acute toxicity (LD50). The method, then: In view of their high therapeutic index, the compounds of the invention can be used safely in medicine. For example, the approximate acute toxicity (LD50) of the compounds 7-trans-[2-(3-pyridyl)-ethenyl]-5H-thiazolo[3,2-a]pyrimidine-5-one and 2-chloro-7-trans-[2-(3-pyridyl)-ethenyl]-5H-thiazolo[3,2-a]pyrimidine-5-one in the mouse determined by single administration of increasing doses and measured on the seventh day of treatment, is higher than 800 mg/kg per os. Analogous toxicity data have been found for other compounds of the invention.

For another data set, the target named is T1, TXA2 synthetase (Rattus norvegicus, UniProt P49430).
T1 construct: determining the concentration of TXB2 in the serum of the animals killed two hours after the administration of the drug; from tissue; host or cells: living rat, serum sampled after oral dosing (endogenous enzyme)
T1 sequence (P49430 1-533): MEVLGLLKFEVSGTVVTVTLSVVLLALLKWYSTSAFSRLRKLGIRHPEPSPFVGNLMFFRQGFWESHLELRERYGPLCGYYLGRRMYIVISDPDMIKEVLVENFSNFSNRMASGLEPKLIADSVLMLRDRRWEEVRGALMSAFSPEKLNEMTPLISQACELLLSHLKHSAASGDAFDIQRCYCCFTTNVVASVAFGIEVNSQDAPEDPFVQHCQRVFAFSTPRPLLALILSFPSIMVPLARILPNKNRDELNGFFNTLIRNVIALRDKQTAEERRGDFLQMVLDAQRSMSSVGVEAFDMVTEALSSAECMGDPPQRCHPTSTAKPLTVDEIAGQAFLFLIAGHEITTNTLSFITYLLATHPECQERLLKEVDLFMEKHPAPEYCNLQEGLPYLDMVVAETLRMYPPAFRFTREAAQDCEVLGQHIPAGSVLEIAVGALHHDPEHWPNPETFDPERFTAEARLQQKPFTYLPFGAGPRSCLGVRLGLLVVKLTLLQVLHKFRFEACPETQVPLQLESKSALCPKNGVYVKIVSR
Nature of the data set: TXA2 synthetase inhibition in vivo, TXB2 concentration in serum. As to conditions: single oral dose of 10 mg/kg, TXB2 in serum two hours after administration. The method, then: The activity on the TXA2 synthetase was evaluated, e.g., in rat by administering the compounds at a single oral dose of 10 mg/kg and determining the concentration of TXB2 in the serum of the animals killed two hours after the administration of the drug.

Data set [3] has as its system phenylquinone induced writhing. Nature of the data set: phenylquinone induced writhing test (Siegmund). The data set is classed as in vivo, mice. As to conditions: Mus musculus; approximate ED25; printed 'in the rat', after oral administration; read-out: analgesic activity ED25, phenylquinone-induced writhing test.
From the text: as §1
With regard to the analgesic activity, one of the preferred compounds of this invention is, for example, the compound 2-chloro-7-trans-[2-(3-pyridyl)-ethenyl]-5H-thiazolo[3,2-a]pyrimidine-5-one, wich has an approximate ED25 value of 25 mg/kg in the phenylquinone-induced writhing test in the rat, after oral administration. Furthermore the compounds of this invention are effective in the inhibiting the TXA2 synthetase in vivo and may be therefore useful in therapy, for example, in the prevention and treatment of all kinds of thrombosis, peripheral vasculopaties and coronary artery diseases.

Data set [4] deals with Reversed Passive Arthus Reaction (RPAR). Nature of the data set: Reversed Passive Arthus Reaction (RPAR) in rat paw. The data set is classed as in vivo. As to conditions: approximate ED25, oral administration, read-out: Anti-inflammatory activity RPAR reaction ED25.
From the text: as §1, §2

For data set [5], the system named is gastric secretion in rats. The experiment in a line: gastric antisecretory activity, pylorus ligature technique (Shay method). The data set is classed as in vivo. The settings on record: approximate ED50; rat, intraduodenal administration at the time of ligature, 4 hours. The method, then: Gastric antisecretory activity was evaluated in rats by the pylorus ligature technique. Six Sprague-Dawley male rats (110-130 g) were used for each group. Twenty-four hours before the test, the rats were deprived of food but their water supply was maintained. On the day of the operation, the pylorus was ligated under light ether anaesthesia. Each compound was injected intraduodenally (i.d.) at the time of the ligature. Four hours after the ligature the rats were sacrificed, the stomach secretion was collected and centrifuged at 3500 r.p.m. for 10 minutes, and the volume, less sediment, was determined.
The amount of the free hydrochloric acid in the gastric juice was determined by titration against 0.01 N sodium hydroxide to pH 7.0.

Four compounds from patent US4444773A, “Substituted thiazolo[3,2-a]pyrimidines and process for their preparation” (Farmitalia Carlo Erba S.p.A., priority 1981, dated 1984) can be followed below.

For `O=c1cc(/C=C/c2cccnc2)nc2sccn12` [7-trans-[2-(3-pyridyl)-ethenyl]-5H-thiazolo[3,2-a]pyrimidine-5-one], the ED50 (in general, the dose that gives a 50% effect, or the effect in half of the subjects) in the data set on restraint ulcers in rats was 9 mg/kg. The ED25 in data set [1] came out at 6 mg/kg. The LD50 (commonly the dose at which mortality reaches 50%) at 168 h in data set [2] is over 800 mg/kg.
As to `Cc1c(/C=C/c2cccnc2)nc2sccn2c1=O` [6-methyl-7-trans-[2-(3-pyridyl)-ethenyl]-5H-thiazolo[3,2-a]pyrimidine-5-one], on TXA2 synthetase, the “TXA2 synthetase inhibiting activity” value is “having TXA2 synthetase inhibiting activity”.
Take `O=c1cc(/C=C/c2cccnc2)nc2sc(Cl)cn12` [2-chloro-7-trans-[2-(3-pyridyl)-ethenyl]-5H-thiazolo[3,2-a]pyrimidine-5-one]: the 50% effective dose (ED50) in the data set on restraint ulcers in rats came out at 10 mg/kg. The ED25 in data set [1] was 16 mg/kg; in data set [3], about 25 mg/kg; in data set [4], 25 mg/kg. Further, the LD50 at 168 h in data set [2] is over 800 mg/kg.
For the compound `COc1c(/C=C/c2cccnc2)nc2sccn2c1=O` [6-methoxy-7-trans-[2-(3-pyridyl)-ethenyl]-5H-thiazolo[3,2-a]pyrimidine-5-one], in data set [5], the median effective dose (ED50) was about 30 mg/kg. Further, the ED25 in data set [1] amounted to 15 mg/kg.
